According to ChEMBL document CHEMBL1124790, “Angiotensin converting enzyme inhibitors. 10. Aryl sulfonamide substituted N-[1-carboxy-3-phenylpropyl]-L-alanyl-L-proline derivatives as novel antihypertensives” (J Med Chem, 1990):
One block for each compound: values may come before it. Active and inactive are the calls of the source. The calls are words filed in the database; no cut-off is given here.

Legend:
[1] = biological target: T1, Angiotensin-converting enzyme (Oryctolagus cuniculus) (UniProt P12822); assay: Time to inhibit maximum angiotensin I converting enzyme in rabbit lung; assay type: functional, tissue-based
T1 sequence (whole entry): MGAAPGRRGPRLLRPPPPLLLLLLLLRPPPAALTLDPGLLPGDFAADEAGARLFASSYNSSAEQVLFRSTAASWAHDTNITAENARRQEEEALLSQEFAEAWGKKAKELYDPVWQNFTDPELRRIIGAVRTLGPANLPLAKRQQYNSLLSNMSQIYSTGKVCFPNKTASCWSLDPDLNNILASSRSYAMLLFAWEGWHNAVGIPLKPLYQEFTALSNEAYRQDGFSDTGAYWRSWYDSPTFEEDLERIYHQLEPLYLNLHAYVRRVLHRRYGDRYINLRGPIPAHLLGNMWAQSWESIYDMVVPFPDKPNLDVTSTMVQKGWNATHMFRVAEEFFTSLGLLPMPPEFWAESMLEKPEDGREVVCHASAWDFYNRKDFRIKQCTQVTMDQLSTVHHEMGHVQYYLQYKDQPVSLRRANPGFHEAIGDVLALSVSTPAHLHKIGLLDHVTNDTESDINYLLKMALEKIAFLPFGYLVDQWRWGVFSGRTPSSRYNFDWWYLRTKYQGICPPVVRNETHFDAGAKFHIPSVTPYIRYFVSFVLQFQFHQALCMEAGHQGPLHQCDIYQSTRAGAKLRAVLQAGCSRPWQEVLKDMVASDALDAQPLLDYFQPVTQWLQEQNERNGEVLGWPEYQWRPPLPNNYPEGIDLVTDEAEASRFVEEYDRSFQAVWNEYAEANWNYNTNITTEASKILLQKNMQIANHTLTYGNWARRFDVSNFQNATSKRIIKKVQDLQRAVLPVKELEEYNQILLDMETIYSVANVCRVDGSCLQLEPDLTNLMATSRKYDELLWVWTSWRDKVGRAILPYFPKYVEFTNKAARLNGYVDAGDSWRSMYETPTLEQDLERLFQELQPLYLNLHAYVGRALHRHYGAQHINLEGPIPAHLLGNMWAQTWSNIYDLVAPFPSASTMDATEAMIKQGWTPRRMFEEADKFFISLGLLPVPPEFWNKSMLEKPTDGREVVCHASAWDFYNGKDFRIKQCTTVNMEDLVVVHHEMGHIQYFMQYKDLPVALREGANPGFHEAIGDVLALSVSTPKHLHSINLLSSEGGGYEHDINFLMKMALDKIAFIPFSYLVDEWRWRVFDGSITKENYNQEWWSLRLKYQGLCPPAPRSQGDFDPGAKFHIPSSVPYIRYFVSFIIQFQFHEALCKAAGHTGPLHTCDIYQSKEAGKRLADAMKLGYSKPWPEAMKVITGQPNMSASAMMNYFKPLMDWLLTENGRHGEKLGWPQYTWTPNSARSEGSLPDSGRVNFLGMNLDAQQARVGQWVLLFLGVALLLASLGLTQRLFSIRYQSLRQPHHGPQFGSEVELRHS

[2] = biological target: T1, Angiotensin-converting enzyme (Oryctolagus cuniculus); assay: Time during which angiotensin I converting enzyme inhibition is greater than or equa to 30% in rabbit lung; assay type: functional, tissue-based
[3] = biological target: T2, Angiotensin-converting enzyme (Oryctolagus cuniculus, UniProt P12822); assay: In vitro inhibition of angiotensin I converting enzyme (ACE) in rabbit lung; assay type: tissue-based
T2 sequence (P12822 whole entry): T1 sequence (whole entry)

[4] = biological target: T1, Angiotensin-converting enzyme (Oryctolagus cuniculus); assay: In vivo inhibition of angiotensin I converting enzyme (ACE) in rabbit lung after (po) administration of a dose of 10(mg/kg); assay type: organism-based
[5] = test system: Rattus norvegicus; assay: Percent change in K+ in fasted rats at the dose of 30 mg/kg (ip), 0-5 h; NA=Inactive; assay type: functional, organism-based; set-up: dose 30 mg/kg
[6] = biological target: T1, Angiotensin-converting enzyme (Oryctolagus cuniculus); assay: Time to inhibit maximum Angiotensin I converting enzyme in rabbit lung; assay type: functional, tissue-based
[7] = test system: Rattus norvegicus; assay: Antihypertensive activity was determined in spontaneously hypertensive rat at a dose of 3 mg/kg(po) administration; assay type: functional
[8] = test system: Rattus norvegicus; assay: Time duration was determined for the actioni (determination of MAP in po administration) in rat; assay type: functional
[9] = species on record: Rattus norvegicus; assay: The onset hour was determined in rat; assay type: functional
[10] = biological target: Angiotensin-converting enzyme (Homo sapiens) (UniProt P12821+Q9BYF1); settings: Sus scrofa; Plasma
Chain of Angiotensin-converting enzyme (Homo sapiens) (P12821 whole entry, looked up): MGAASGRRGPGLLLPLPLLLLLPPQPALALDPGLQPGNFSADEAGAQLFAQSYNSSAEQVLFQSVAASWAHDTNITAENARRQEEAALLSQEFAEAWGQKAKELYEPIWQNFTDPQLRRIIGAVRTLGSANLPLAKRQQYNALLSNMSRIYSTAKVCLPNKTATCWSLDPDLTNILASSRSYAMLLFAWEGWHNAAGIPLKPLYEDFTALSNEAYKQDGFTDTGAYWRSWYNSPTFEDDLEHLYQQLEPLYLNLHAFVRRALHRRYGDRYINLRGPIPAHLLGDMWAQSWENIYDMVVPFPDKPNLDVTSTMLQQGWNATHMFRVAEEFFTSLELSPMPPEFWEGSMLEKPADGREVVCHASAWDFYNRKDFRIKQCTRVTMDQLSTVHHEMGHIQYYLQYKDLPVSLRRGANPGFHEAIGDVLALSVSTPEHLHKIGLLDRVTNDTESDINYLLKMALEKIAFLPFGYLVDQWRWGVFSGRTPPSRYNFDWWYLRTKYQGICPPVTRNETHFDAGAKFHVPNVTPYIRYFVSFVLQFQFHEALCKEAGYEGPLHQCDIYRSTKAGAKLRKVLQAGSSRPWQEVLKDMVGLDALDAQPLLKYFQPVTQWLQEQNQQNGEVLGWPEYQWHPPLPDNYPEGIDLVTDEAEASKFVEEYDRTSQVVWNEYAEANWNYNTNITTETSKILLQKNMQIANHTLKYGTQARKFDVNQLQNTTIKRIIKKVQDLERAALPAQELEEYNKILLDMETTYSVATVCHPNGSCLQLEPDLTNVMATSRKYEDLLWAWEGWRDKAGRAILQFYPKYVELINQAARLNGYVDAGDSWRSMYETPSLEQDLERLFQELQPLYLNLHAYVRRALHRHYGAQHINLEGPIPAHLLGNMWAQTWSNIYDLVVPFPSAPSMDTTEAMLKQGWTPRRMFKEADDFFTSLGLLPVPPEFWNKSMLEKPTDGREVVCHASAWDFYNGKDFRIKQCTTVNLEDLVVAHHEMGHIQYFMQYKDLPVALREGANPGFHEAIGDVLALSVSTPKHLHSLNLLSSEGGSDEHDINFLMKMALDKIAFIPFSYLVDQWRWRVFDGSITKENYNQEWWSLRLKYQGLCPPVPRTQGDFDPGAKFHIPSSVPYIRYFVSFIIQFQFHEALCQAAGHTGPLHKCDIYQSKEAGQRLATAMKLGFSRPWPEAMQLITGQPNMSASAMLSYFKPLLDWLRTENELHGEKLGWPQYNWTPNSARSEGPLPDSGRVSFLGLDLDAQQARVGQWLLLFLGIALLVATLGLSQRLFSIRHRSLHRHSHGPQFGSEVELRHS
Chain of Angiotensin-converting enzyme (Homo sapiens) (Q9BYF1 whole entry, looked up): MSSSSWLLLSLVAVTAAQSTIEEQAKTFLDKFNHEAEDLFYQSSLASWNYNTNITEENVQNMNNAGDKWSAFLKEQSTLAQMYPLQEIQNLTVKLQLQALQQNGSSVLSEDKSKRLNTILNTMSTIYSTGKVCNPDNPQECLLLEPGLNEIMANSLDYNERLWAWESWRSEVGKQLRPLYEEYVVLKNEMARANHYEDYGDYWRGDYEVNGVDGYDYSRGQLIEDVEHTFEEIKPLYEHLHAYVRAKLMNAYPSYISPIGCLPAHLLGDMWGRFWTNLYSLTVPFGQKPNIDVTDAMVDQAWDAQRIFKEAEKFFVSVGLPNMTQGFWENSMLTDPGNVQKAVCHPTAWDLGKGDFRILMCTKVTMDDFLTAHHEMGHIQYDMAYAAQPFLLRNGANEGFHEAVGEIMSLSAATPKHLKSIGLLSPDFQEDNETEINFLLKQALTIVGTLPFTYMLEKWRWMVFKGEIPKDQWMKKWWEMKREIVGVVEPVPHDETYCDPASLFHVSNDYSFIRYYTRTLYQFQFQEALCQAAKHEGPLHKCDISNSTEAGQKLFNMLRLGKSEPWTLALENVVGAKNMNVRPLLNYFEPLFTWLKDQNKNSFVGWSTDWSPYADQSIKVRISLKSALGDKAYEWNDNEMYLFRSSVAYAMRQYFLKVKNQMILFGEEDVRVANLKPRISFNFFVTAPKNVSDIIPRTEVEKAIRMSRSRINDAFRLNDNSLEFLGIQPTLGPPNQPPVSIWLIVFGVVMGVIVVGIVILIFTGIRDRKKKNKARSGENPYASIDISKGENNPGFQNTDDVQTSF

[11] = biological target: T1, Angiotensin-converting enzyme (Oryctolagus cuniculus); settings: Lung
[12] = test system: Rattus norvegicus; assay: Percent change in K+ in fasted rats at the dose of 10 mg/kg (iv), 0-5 h; assay type: functional
[13] = test system: Rattus norvegicus; assay: Percent change in K+ in fasted rats at the dose of 30 mg/kg (po), 0-5 h; assay type: functional
[14] = test system: Rattus norvegicus; assay: Percent change in Na+ in fasted rats at the dose of 10 mg/kg (iv), 0-5 h; assay type: functional
[15] = test system: Rattus norvegicus; assay: Percent change in Na+in fasted rats at the dose of 30 mg/kg (po), 0-5 h; assay type: functional
[16] = test system: Rattus norvegicus; assay: Percent change in urinary volume in fasted rats at the dose of 10 mg/kg (iv), 0-5 h; assay type: functional, Urine
[17] = test system: Rattus norvegicus; assay: Percent change in urinary volume in fasted rats at the dose of 30 mg/kg (po), 0-5 h; assay type: functional, Urine
[18] = biological target: T1, Angiotensin-converting enzyme (Oryctolagus cuniculus); assay: In vivo inhibition of Angiotensin I converting enzyme in rabbit lung after (po) administration of a dose of 10(mg/kg); assay type: organism-based
[19] = biological target: T2, Angiotensin-converting enzyme; assay: In vitro inhibition of angiotensin I converting enzyme(ACE) in rabbit lung; assay type: tissue-based
[20] = biological target: T1, Angiotensin-converting enzyme (Oryctolagus cuniculus); assay: In vivo inhibition of angiotensin I converting enzyme (ACE) in rabbit lung after (iv) administration of a dose of 10(mg/kg); assay type: organism-based
[21] = test system: Rattus norvegicus; assay: Percent change in K+ in fasted rats at the dose of 82 mg/kg (iv), 0-5 h; assay type: functional
[22] = test system: Rattus norvegicus; assay: Antihypertensive activity was determined in spontaneously hypertensive rat at a dose of 100 mg/kg(ip) administration; assay type: functional
[23] = test system: Rattus norvegicus; assay: Percent change in urinary volume in fasted rats at the dose of 82 mg/kg (iv), 0-5 h; assay type: functional, Urine
[24] = test system: Rattus norvegicus; assay: Time duration was determined for the actioni (determination of MAP in case of oral administration) in rat; assay type: functional
[25] = test system: Rattus norvegicus; assay: Time duration was determined for the actioni (determination of MAP in ip administration) in rat; assay type: functional
[26] = test system: Rattus norvegicus; assay: Percent change in Na+ in fasted rats at the dose of 82 mg/kg (iv), 0-5 h; assay type: functional
[27] = test system: Rattus norvegicus; assay: Antihypertensive activity was determined in spontaneously hypertensive rat at a dose of 100 mg/kg(po) administration; assay type: functional
[28] = test system: Angiotensin-converting enzyme (Sus scrofa); assay: Time to inhibit maximum angiotensin I converting enzyme in Hog plasma
[29] = test system: Angiotensin-converting enzyme (Sus scrofa); assay: Time during which angiotensin I converting enzyme inhibition is greater than or equal to 30% in Hog plasma

SMILES: CCOC(=O)[C@H](CCc1ccccc1)N[C@@H](C)C(=O)N1CCC[C@H]1C(=O)O
Time to max. inhibition [6]: 1 h
Change in MAP [7]: -10%
Duration [8]: 4 h
Onset [9]: 1 h
Duration [10]: > 3 h
Duration [11]: > 4 h

SMILES: NS(=O)(=O)c1cc2c(cc1Cl)N=CNS2(=O)=O [CHLOROTHIAZIDE]
Change [12]: 100%
Change [13]: 71%
Change [14]: 60%
Change [15]: 0%
Change [16]: 83%
Change [17]: 94%

More lines, main results first:

Time to max. inhibition [1]: 1 h
Duration [2]: 2.1 h
IC50 [3]: 85 nM
inhibition [4]: 54%
SMILES: C[C@H](N[C@@H](CCc1ccccc1)C(=O)O)C(=O)N1CC2(C[C@H]1C(=O)O)Nc1cc(Cl)c(S(N)(=O)=O)cc1S(=O)(=O)N2 (stereo partly drawn)
Change [5]: inactive

inhibition [18]: 74%
SMILES: C[C@H](N[C@@H](CCc1ccccc1)C(=O)O)C(=O)N1CCC[C@H]1C(=O)O

Time to max. inhibition [1]: 0.3 h
Duration [2]: 3.7 h
IC50 [19]: 22 nM
inhibition [20]: 100%
inhibition [4]: 38%
Time to max. inhibition [28]: 2.6 h
Duration [29]: 1.6 h
SMILES: C[C@H](N[C@@H](CCc1ccccc1)C(=O)O)C(=O)N1C[C@H](OCCC2Nc3cc(Cl)c(S(N)(=O)=O)cc3S(=O)(=O)N2)C[C@H]1C(=O)O (stereo partly drawn)
Change [21]: 80%
Change in MAP [22]: -35%
Change [23]: 0%
Duration [24]: 19 h
Duration [25]: >14 h
Onset [9]: 0.25 h
Change [26]: 60%
Change in MAP [27]: -19%
